From the supplement of paper PMC10307832

Legend:
Test in all cases: relative viability (nuclei count vs DMSO), 5 days (fraction); higher = more cells survive
ChaGo-K-1 = test system: ChaGo-K-1
Outline: (§1)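 Cells from lung cancer lines were seeded into 1536-well plates and, one day later, dosed by pin tool. Treatments were either a single drug or a fixed dose of an anchor drug with five library-drug doses (not always all listed) in √10 steps. After 5 days, nuclei were stained in a one-step fixation (final 0.05% Triton X-100, 1% formaldehyde, 1 ug/ml Hoechst) and counted on 4× images, and relative viability is the treated-to-vehicle nuclei ratio, as the median of duplicate plates.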

NCI-H1793 = test system: NCI-H1793
Outline: as §1

LCLC-103H = test system: LCLC-103H
Outline: as §1

NCI-H2170 = test system: NCI-H2170
Outline: as §1

NCI-H460 = test system: NCI-H460
Outline: as §1

HCC-44 = test system: HCC-44
Outline: as §1

NCI-H650 = test system: NCI-H650
Outline: as §1

NCI-H2347 = test system: NCI-H2347
Outline: as §1

NCI-H2023 = test system: NCI-H2023
Outline: as §1

NCI-H441 = test system: NCI-H441
Outline: as §1

EPLC-272H = test system: EPLC-272H
Outline: as §1

NCI-H2009 = test system: NCI-H2009
Outline: as §1

NCI-H2405 = test system: NCI-H2405
Outline: as §1

HOP-62 = test system: HOP-62
Outline: as §1

NCI-H1437 = test system: NCI-H1437
Outline: as §1

NCI-H23 = test system: NCI-H23
Outline: as §1

NCI-H647 = test system: NCI-H647
Outline: as §1

NCI-H2126 = test system: NCI-H2126
Outline: as §1

EMC-BAC-2 = test system: EMC-BAC-2
Outline: as §1

LOU-NH91 = test system: LOU-NH91
Outline: as §1

NCI-H520 = test system: NCI-H520
Outline: as §1

SW 1573 = test system: SW 1573
Outline: as §1

O=c1[nH]c2ccccc2n1C1CCN(CCCC(c2ccc(F)cc2)c2ccc(F)cc2)CC1 [Pimozide] + Nc1nc2[nH]cc(CCc3ccc(C(=O)N[C@@H](CCC(=O)O)C(=O)O)cc3)c2c(=O)[nH]1 [Pemetrexed] (partner 0.2 µM)
relative viability (ChaGo-K-1; first compound 0.08 µM): 0.248
relative viability (ChaGo-K-1; first compound 0.253 µM): 0.277
relative viability (ChaGo-K-1; first compound 0.8 µM): 0.245
relative viability (ChaGo-K-1; first compound 2.53 µM): 0.267
relative viability (ChaGo-K-1; first compound 8 µM): 0.254
relative viability (NCI-H1793; first compound 0.08 µM): 0.807
relative viability (NCI-H1793; first compound 0.253 µM): 0.798
relative viability (NCI-H1793; first compound 0.8 µM): 0.8
relative viability (NCI-H1793; first compound 2.53 µM): 0.829
relative viability (NCI-H1793; first compound 8 µM): 0.676
relative viability (LCLC-103H; first compound 0.08 µM): 0.435
relative viability (LCLC-103H; first compound 0.253 µM): 0.425
relative viability (LCLC-103H; first compound 0.8 µM): 0.471
relative viability (LCLC-103H; first compound 2.53 µM): 0.385
relative viability (LCLC-103H; first compound 8 µM): 0.468
relative viability (NCI-H2170; first compound 0.08 µM): 0.273
relative viability (NCI-H2170; first compound 0.253 µM): 0.242
relative viability (NCI-H2170; first compound 0.8 µM): 0.263
relative viability (NCI-H2170; first compound 2.53 µM): 0.258
relative viability (NCI-H2170; first compound 8 µM): 0.258
relative viability (NCI-H460; first compound 0.08 µM): 0.05
relative viability (NCI-H460; first compound 0.253 µM): 0.0643
relative viability (NCI-H460; first compound 0.8 µM): 0.0627
relative viability (NCI-H460; first compound 2.53 µM): 0.0654
relative viability (NCI-H460; first compound 8 µM): 0.0685
relative viability (HCC-44; first compound 0.08 µM): 0.67
relative viability (HCC-44; first compound 0.253 µM): 0.666
relative viability (HCC-44; first compound 0.8 µM): 0.577
relative viability (HCC-44; first compound 2.53 µM): 0.618
relative viability (HCC-44; first compound 8 µM): 0.577
relative viability (NCI-H650; first compound 0.08 µM): 0.939
relative viability (NCI-H650; first compound 0.253 µM): 0.936
relative viability (NCI-H650; first compound 0.8 µM): 0.793
relative viability (NCI-H650; first compound 2.53 µM): 0.914
relative viability (NCI-H650; first compound 8 µM): 1.02
relative viability (NCI-H2347; first compound 0.08 µM): 0.406
relative viability (NCI-H2347; first compound 0.253 µM): 0.449
relative viability (NCI-H2347; first compound 0.8 µM): 0.42
relative viability (NCI-H2347; first compound 2.53 µM): 0.368
relative viability (NCI-H2347; first compound 8 µM): 0.475
relative viability (NCI-H2023; first compound 0.08 µM): 0.215
relative viability (NCI-H2023; first compound 0.253 µM): 0.231
relative viability (NCI-H2023; first compound 0.8 µM): 0.226
relative viability (NCI-H2023; first compound 2.53 µM): 0.179
relative viability (NCI-H2023; first compound 8 µM): 0.164
relative viability (NCI-H441; first compound 0.08 µM): 0.27
relative viability (NCI-H441; first compound 0.253 µM): 0.314
relative viability (NCI-H441; first compound 0.8 µM): 0.276
relative viability (NCI-H441; first compound 2.53 µM): 0.265
relative viability (NCI-H441; first compound 8 µM): 0.238
relative viability (EPLC-272H; first compound 0.08 µM): 0.319
relative viability (EPLC-272H; first compound 0.253 µM): 0.285
relative viability (EPLC-272H; first compound 0.8 µM): 0.271
relative viability (EPLC-272H; first compound 2.53 µM): 0.179
relative viability (EPLC-272H; first compound 8 µM): 0.238
relative viability (NCI-H2009; first compound 0.08 µM): 1.07
relative viability (NCI-H2009; first compound 0.253 µM): 1
relative viability (NCI-H2009; first compound 0.8 µM): 0.975
relative viability (NCI-H2009; first compound 2.53 µM): 0.963
relative viability (NCI-H2009; first compound 8 µM): 0.973
relative viability (NCI-H2405; first compound 0.08 µM): 0.968
relative viability (NCI-H2405; first compound 0.253 µM): 1.09
relative viability (NCI-H2405; first compound 0.8 µM): 1.05
relative viability (NCI-H2405; first compound 2.53 µM): 0.989
relative viability (NCI-H2405; first compound 8 µM): 0.88
relative viability (HOP-62; first compound 0.08 µM): 0.275
relative viability (HOP-62; first compound 0.253 µM): 0.362
relative viability (HOP-62; first compound 2.53 µM): 0.283
relative viability (HOP-62; first compound 8 µM): 0.284
relative viability (NCI-H1437; first compound 0.08 µM): 0.354
relative viability (NCI-H1437; first compound 0.253 µM): 0.306
relative viability (NCI-H1437; first compound 0.8 µM): 0.274
relative viability (NCI-H1437; first compound 2.53 µM): 0.312
relative viability (NCI-H1437; first compound 8 µM): 0.219
relative viability (NCI-H23; first compound 0.08 µM): 0.64
relative viability (NCI-H23; first compound 0.253 µM): 0.716
relative viability (NCI-H23; first compound 0.8 µM): 0.609
relative viability (NCI-H23; first compound 2.53 µM): 0.59
relative viability (NCI-H23; first compound 8 µM): 0.591
relative viability (NCI-H647; first compound 0.08 µM): 0.186
relative viability (NCI-H647; first compound 0.253 µM): 0.188
relative viability (NCI-H647; first compound 0.8 µM): 0.175
relative viability (NCI-H647; first compound 2.53 µM): 0.2
relative viability (NCI-H647; first compound 8 µM): 0.128
relative viability (NCI-H2126; first compound 0.08 µM): 0.65
relative viability (NCI-H2126; first compound 0.253 µM): 0.659
relative viability (NCI-H2126; first compound 0.8 µM): 0.637
relative viability (NCI-H2126; first compound 2.53 µM): 0.659
relative viability (NCI-H2126; first compound 8 µM): 0.652
relative viability (EMC-BAC-2; first compound 0.08 µM): 0.464
relative viability (EMC-BAC-2; first compound 0.253 µM): 0.462
relative viability (EMC-BAC-2; first compound 0.8 µM): 0.392
relative viability (EMC-BAC-2; first compound 2.53 µM): 0.428
relative viability (EMC-BAC-2; first compound 8 µM): 0.438
relative viability (LOU-NH91; first compound 0.08 µM): 0.389
relative viability (LOU-NH91; first compound 0.253 µM): 0.474
relative viability (LOU-NH91; first compound 0.8 µM): 0.395
relative viability (LOU-NH91; first compound 2.53 µM): 0.384
relative viability (LOU-NH91; first compound 8 µM): 0.384
relative viability (NCI-H520; first compound 0.08 µM): 0.651
relative viability (NCI-H520; first compound 0.253 µM): 0.723
relative viability (NCI-H520; first compound 0.8 µM): 0.739
relative viability (NCI-H520; first compound 2.53 µM): 0.734
relative viability (NCI-H520; first compound 8 µM): 0.575
relative viability (SW 1573; first compound 0.08 µM): 0.852
relative viability (SW 1573; first compound 0.253 µM): 0.849
relative viability (SW 1573; first compound 0.8 µM): 0.831
relative viability (SW 1573; first compound 2.53 µM): 0.665
relative viability (SW 1573; first compound 8 µM): 0.558
